The source made the active and inactive calls.
Experiments:
[1] = molecular target: Kallikrein-7 (Homo sapiens, UniProt P49862); assay: Fluorescence Intensity-based biochemical primary high throughput dose response assay to identify activators of kallikrein-7 (K7) zymogen.
[2] = molecular target: Paired box protein Pax-8 (Homo sapiens, UniProt Q06710); assay: PAX8 transcriptional activity inhibition in RMG-I – RMG-I cells, luciferase, cherry-pick, dose response (AID 687027); format: functional, cell-based;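 note: luciferase reporter driven by Pax8 target thyroperoxidase promoter measured by SteadyGlo luminescence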
[3] = OVCAR-3 cell viability loss – plate reader, dry powder samples, PAX8 inhibitor project, dose response (AID 743044); format: functional, cell-based
[4] = OVCAR8 cell viability loss – plate reader, dry powder samples, PAX8 project, dose response (AID 743197); format: functional, cell-based; settings: OVCAR-8
[5] = reduced cellular PGC1a acetyl-lysine signal – cell-based, cherry-picked samples, dose response (AID 720514); format: functional;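 note: potency may reflect raised or lowered acetylation signal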
[6] = blockers of HIV-1 envelope-mediated cell-cell fusion – cherry-pick, dose response (AID 652057); format: functional, cell-based
[7] = viability loss in CEM21 cells – cell-based, CellTiter-Glo luminescence, cherry-picked, cytotoxicity control for viral fusion inhibitor project, dose response (AID 652042); format: functional;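 note: potency for signal decrease meaning cytotoxicity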
[8] = blockers of HIV-1 ZM109 envelope-driven cell-cell fusion – HeLa effector, CEM target cells, luciferase, cherry-pick, dose response (AID 652058); format: functional, cell-based;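 note: luciferase signal from HIV-1 Env mediated cell-cell fusion of effector and target cells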
[9] = off-target signal loss in HeLa-CEM21 co-culture – HeLa F-luc CTL cells, cherry-picked, counter-screen for HIV-1 Env fusion inhibitor project, dose response (AID 652040); format: functional, cell-based;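 note: potency for signal decrease marking cytotoxic or nonspecific inhibition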
[10] = HIV-1 AD8 envelope cell-cell fusion blockers – cherry-pick, dose response (AID 652062); format: functional, cell-based;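 note: luciferase signal from cell-cell fusion driven by HIV-1 clade B AD8 Env; potency is for inhibitors of fusion seen as a drop in luminescence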
[11] = molecular target: COUP transcription factor 2 (Homo sapiens, UniProt P24468); assay: Luminescence-based cell-based high throughput dose response assay to identify inhibitors of COUP-TFII (NR2F2).; format: functional;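 note: HEK293 cells transiently cotransfected with COUP-TFII expression vector and reporter; luciferase reporter luminescence driven by COUP-TFII from the pX2-168 reporter plasmid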
[12] = tested on: HEK293; assay: viability loss in HEK293T cells – cell-based, ATP luminescence, cherry-pick samples, cytotoxicity control, dose response (AID 687005); format: functional; settings: Homo sapiens;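 note: cells exposed to compound for 48 hours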
[13] = HEK293 Cytotoxicity Assay Measured in Cell-Based System Using Plate Reader - 7071-01_Inhibitor_Dose_CherryPick_Activity_Set2.; format: functional
[14] = glucagon-like peptide-1 release potency in STC-1, concentration-response, half-maximal inhibitory concentration in the STC-1 line (AID 1117345); format: functional, cell-based
[15] = Potency on glucagon-like peptide 1 release, dose-response in NCI-H716 cell line, half maximal inhibitory concentration (AID 1117344); format: functional, cell-based
[16] = molecular target: Heat shock protein HSP 90-alpha (Homo sapiens, UniProt P07900); assay: Luminescence-based dose response biochemical high throughput screening assay for inhibitors of the Heat Shock Protein 90 (HSP90). [Related pubchem assays: 1831 (Summary AID.), 1846 (Confirmation screen.), 1789 (Primary screen.)]
[17] = molecular target: fMet-Leu-Phe receptor (Homo sapiens, UniProt P21462); assay: formyl peptide receptor binders – dose response (AID 519); format: functional
[18] = molecular target: Transthyretin (Homo sapiens, UniProt P02766); assay: Luminescence-based cell-based high throughput dose response assay to identify activators of Transthyretin (TTR) transcription.; format: functional
[19] = IGROV1 cell killing – plate reader, dry powder samples, PAX8 inhibitor project, dose response (AID 743043); format: functional, cell-based; settings: IGROV-1
[20] = molecular target: Glucose-6-phosphate 1-dehydrogenase (Homo sapiens, UniProt P11413); assay: inhibition of Homo sapiens G6PD, dose series – biochemical, fluorescence, selectivity assay for P. falciparum G6PD inhibitor project, dose response (AID 504792); format: functional
[21] = molecular target: T1, Endoribonuclease toxin MazF (Escherichia coli K-12, UniProt P0AE70); assay: activation of MazEF endoribonuclease cleavage – biochemical, fluorescence, single-stranded RNA substrate, uHTS hits, dose response (AID 588481); format: functional
T1 sequence (P0AE70 whole entry): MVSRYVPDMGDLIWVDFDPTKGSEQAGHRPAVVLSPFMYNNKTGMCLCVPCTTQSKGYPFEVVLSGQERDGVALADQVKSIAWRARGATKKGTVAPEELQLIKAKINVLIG

[22] = molecular target: T1, Endoribonuclease toxin MazF; assay: substrate-only fluorescence increase artefacts – biochemical, single-stranded RNase substrate, counter-screen for MazEF activator project, dose response (AID 588502); format: functional
[23] = molecular target: T2, Caspase-6 (Homo sapiens, UniProt P55212); assay: inhibition of CASP6 peptide cleavage – biochemical, VEID-R110 fluorescence, cherry-pick, dose response (AID 720632)
T2 sequence (P55212 whole entry): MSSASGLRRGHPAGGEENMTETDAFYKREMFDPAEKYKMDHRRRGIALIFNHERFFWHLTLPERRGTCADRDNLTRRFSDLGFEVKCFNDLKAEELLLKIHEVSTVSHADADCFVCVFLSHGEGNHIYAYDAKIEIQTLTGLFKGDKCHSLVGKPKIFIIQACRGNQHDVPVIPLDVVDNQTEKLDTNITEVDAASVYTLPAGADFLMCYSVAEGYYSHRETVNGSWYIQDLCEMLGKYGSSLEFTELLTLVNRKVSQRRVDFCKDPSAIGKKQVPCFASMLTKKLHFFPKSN

[24] = molecular target: T3, Caspase-7 (Homo sapiens, UniProt P55210); assay: caspase-7 enzyme inhibition, selectivity check – biochemical, DEVD-R110 fluorescence, cherry-pick, selectivity assay for caspase-6 inhibitor project, dose response (AID 743295); format: functional
T3 sequence (P55210 whole entry): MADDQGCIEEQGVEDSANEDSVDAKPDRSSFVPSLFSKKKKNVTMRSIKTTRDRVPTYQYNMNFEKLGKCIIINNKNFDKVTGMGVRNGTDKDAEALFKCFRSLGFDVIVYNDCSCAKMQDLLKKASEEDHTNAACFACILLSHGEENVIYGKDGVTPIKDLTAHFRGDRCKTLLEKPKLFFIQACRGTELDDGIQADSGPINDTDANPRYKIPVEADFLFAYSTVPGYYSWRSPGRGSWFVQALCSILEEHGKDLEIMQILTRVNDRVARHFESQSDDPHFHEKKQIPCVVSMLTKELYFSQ

[25] = reduction of Shn3 3'UTR-driven luciferase in osteoblasts – cell-based, Clone20 osteoblasts, firefly luciferase, cherry-picked, dose response (AID 624132); format: functional;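 note: firefly luciferase luminescence from reporter carrying the Shn3 3'UTR in osteoblasts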
[26] = loss of viability in HepG2 cells – cell-based, CellTiter-Glo, cherry-picked, cytotoxicity control for Shn3 inhibitor project, dose response (AID 624134); format: functional
[27] = non-specific 3'UTR reporter inhibition in Clone20-Shn3RL – cell-based, Renilla luciferase, cherry-picked, counter-screen for Shn3 inhibitor project, dose response (AID 624133); format: functional
[28] = molecular target: 1-phosphatidylinositol 4,5-bisphosphate phosphodiesterase gamma-1 (Homo sapiens, UniProt P19174); assay: Counterscreen for inhibitors of phospholipase C isozymes (PLC-B3): Fluorescence-based biochemical high throughput dose response assay to identify inhibitors of phospholipase C isozymes (PLC-gamma1).
[29] = molecular target: 1-phosphatidylinositol 4,5-bisphosphate phosphodiesterase beta-3 (Homo sapiens, UniProt Q01970); assay: Fluorescence-based biochemical high throughput dose response assay to identify inhibitors of phospholipase C isozymes (PLC-B3).
[30] = molecular target: Potassium channel subfamily K member 9 (Homo sapiens, UniProt Q9NPC2); assay: KCNK9 flux blockade, concentration-response – cell-based, FluxOR thallium flux, selectivity assay for TASK1 inhibitor project, SAR follow-up (AID 652211); format: functional;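 note: potency is for inhibitors of the channel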
[31] = molecular target: Potassium channel subfamily K member 3 (Homo sapiens, UniProt O14649); assay: inhibition of human KCNK3 channel flux – CHO cells, FluxOR thallium flux, SAR follow-up (AID 652212); format: functional
[32] = molecular target: Disintegrin and metalloproteinase domain-containing protein 17 (Homo sapiens, UniProt P78536); assay: exosite inhibitors of ADAM17, dose response, biochemical (AID 743260)
[33] = inhibition of ADAM10 peptide cleavage – biochemical, FRET peptide substrate, recombinant human ADAM10, selectivity assay for ADAM17 exosite inhibitor project, dose response (AID 743259);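 note: ADAM10 enzyme cleaving a FRET peptide substrate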
[34] = luciferase reporter signal suppression in cells – H4 neuroglioma cells, luminescence, dose response (AID 1990); format: functional, cell-based
[35] = Luminescence Cell-Based Dose Response HTS to Identify Inhibitors of 5'UTR Stem-Loop Driven Prion Protein mRNA Translation in H4 Neuroglioblastoma Cells. [Related pubchem assays: 1827 (Project Summary), 1813 (Primary HTS)]; format: functional
[36] = alpha-synuclein stem-loop luciferase translation blockers – H4 neuroglioma cells, luminescence, confirmation (AID 1988); format: functional, cell-based
[37] = microbe, parasite or virus in culture; format: functional; settings: Mycobacterium tuberculosis

Potassium channel subfamily K member 9, sequence (Q9NPC2 whole entry): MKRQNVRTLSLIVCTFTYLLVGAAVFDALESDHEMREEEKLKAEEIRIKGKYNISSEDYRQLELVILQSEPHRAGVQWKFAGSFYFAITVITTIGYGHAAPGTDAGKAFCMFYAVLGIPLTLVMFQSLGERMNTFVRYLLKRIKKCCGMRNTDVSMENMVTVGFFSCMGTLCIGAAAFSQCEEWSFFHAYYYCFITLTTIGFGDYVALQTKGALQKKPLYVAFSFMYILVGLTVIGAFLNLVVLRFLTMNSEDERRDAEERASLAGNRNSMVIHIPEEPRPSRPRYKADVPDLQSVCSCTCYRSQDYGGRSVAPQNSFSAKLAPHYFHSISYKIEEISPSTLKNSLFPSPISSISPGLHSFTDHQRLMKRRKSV
Potassium channel subfamily K member 3, sequence (O14649 whole entry, the tested form may be a part): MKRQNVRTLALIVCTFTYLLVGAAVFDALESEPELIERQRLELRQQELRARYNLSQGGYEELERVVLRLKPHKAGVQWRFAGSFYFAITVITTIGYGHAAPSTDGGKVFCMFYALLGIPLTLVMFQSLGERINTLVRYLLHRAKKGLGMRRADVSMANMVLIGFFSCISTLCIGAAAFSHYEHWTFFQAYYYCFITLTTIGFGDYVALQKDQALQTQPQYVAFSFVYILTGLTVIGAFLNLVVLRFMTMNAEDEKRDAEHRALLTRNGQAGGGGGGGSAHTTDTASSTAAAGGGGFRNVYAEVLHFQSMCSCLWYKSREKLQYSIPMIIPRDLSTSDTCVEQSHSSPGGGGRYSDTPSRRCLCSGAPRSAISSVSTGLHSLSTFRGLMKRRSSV
fMet-Leu-Phe receptor, sequence (P21462 whole entry): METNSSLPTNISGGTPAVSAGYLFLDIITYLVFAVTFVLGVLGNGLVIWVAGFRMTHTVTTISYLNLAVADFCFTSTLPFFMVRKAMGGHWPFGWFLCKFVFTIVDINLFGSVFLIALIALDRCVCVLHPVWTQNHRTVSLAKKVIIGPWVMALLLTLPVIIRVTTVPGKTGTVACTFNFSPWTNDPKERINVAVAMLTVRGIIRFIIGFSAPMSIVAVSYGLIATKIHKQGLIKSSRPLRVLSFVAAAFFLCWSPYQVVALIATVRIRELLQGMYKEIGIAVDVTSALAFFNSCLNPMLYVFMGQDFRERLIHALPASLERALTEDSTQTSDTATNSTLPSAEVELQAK
Paired box protein Pax-8, sequence (Q06710 whole entry): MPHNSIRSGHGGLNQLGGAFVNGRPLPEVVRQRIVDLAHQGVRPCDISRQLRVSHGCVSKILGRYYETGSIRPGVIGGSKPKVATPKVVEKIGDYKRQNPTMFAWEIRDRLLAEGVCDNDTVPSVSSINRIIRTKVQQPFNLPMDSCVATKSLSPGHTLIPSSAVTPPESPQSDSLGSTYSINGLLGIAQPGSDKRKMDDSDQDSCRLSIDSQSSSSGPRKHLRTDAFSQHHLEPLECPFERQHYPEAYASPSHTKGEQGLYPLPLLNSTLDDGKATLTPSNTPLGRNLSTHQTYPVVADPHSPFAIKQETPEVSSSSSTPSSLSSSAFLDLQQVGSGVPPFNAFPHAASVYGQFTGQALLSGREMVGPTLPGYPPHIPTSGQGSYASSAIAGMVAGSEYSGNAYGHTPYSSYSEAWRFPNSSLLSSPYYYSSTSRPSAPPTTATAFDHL
COUP transcription factor 2, sequence (P24468 whole entry): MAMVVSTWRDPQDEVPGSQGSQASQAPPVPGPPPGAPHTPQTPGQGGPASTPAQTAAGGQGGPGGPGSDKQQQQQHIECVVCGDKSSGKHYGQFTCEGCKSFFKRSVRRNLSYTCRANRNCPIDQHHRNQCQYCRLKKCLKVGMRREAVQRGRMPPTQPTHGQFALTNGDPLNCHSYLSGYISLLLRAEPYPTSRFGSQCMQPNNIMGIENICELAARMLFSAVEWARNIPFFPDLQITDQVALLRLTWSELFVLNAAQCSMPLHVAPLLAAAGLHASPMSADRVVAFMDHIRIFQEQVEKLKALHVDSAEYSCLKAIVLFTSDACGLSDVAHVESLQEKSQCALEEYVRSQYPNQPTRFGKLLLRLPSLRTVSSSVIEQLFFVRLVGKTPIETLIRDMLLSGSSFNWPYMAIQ
Disintegrin and metalloproteinase domain-containing protein 17, sequence (P78536 whole entry, the tested form may be a part): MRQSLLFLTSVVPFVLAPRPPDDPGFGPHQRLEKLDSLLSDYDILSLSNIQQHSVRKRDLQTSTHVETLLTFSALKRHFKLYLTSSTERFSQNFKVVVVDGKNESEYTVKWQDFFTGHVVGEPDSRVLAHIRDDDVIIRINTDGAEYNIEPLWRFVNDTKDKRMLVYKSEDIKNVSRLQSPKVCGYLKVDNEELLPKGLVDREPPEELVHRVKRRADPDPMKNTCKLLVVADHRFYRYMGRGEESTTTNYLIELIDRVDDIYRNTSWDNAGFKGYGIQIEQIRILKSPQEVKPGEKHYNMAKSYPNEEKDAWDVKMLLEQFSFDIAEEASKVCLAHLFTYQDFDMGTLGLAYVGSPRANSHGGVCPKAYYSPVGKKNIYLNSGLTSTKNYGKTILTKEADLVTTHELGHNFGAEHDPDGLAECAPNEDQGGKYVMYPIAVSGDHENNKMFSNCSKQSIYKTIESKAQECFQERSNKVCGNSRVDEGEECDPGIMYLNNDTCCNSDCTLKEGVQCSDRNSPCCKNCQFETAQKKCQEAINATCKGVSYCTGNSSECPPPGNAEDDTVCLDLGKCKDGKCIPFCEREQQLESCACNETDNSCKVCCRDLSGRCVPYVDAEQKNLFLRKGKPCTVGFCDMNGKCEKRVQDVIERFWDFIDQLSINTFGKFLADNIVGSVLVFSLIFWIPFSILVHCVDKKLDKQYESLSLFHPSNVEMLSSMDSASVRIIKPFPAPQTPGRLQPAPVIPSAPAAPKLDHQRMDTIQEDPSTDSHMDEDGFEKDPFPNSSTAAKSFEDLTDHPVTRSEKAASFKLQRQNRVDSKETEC
1-phosphatidylinositol 4,5-bisphosphate phosphodiesterase beta-3, sequence (Q01970 whole entry): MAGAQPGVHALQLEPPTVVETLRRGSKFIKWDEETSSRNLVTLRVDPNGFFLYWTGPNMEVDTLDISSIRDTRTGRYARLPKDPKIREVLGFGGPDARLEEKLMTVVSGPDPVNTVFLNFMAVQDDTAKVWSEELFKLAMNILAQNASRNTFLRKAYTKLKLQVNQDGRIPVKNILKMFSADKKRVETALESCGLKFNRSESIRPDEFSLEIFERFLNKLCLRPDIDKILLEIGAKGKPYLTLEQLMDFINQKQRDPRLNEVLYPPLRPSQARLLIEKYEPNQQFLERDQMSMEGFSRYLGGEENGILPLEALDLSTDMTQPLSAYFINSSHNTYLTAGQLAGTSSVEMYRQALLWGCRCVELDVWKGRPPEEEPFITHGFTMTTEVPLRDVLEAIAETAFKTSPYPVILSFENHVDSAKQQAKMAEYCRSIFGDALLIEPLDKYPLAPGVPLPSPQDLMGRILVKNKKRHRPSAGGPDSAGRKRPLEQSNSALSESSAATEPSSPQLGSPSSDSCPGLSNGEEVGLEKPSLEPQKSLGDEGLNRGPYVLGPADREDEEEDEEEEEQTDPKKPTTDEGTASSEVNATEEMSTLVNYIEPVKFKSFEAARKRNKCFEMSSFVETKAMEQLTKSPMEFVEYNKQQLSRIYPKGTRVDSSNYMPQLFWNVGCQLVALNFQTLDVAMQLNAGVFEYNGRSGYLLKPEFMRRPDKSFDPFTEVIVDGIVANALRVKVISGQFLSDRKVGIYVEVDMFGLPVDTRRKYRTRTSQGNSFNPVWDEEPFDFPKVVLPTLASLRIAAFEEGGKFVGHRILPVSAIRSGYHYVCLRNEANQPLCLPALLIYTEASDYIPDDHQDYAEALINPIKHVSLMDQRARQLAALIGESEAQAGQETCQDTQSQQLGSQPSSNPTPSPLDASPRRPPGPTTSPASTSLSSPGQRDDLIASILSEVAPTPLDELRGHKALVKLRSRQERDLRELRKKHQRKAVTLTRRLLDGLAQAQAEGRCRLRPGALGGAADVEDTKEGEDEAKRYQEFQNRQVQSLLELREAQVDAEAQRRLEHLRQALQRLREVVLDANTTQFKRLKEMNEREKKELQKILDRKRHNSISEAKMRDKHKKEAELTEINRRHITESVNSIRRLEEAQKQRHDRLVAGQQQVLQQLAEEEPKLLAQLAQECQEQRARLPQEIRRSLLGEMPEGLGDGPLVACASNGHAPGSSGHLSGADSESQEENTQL
Kallikrein-7, sequence (P49862 whole entry): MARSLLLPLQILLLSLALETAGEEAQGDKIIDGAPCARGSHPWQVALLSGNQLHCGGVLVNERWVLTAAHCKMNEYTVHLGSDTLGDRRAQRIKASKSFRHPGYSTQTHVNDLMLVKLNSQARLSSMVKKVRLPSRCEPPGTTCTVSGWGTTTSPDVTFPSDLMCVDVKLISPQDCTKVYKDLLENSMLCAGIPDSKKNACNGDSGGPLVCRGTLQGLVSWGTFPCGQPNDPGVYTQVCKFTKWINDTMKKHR
Glucose-6-phosphate 1-dehydrogenase, sequence (P11413 whole entry): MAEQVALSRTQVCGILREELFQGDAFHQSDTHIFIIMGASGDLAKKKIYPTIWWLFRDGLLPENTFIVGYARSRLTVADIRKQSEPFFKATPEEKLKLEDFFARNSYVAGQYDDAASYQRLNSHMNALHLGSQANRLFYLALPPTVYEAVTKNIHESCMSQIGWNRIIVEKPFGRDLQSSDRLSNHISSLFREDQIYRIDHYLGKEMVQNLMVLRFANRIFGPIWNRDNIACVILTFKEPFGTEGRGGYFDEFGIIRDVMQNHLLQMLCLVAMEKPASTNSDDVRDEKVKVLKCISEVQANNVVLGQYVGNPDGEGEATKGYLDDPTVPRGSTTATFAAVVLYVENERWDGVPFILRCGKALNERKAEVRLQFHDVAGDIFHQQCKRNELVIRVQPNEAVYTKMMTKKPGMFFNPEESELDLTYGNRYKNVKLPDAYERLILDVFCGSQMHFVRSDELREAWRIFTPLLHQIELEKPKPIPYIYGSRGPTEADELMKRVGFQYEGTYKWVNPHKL

## COc1ccccc1C1C=C(c2ccccc2)Nc2nnnn21 (stereo not given)
[1]
  EC50: 12.1 µM (inactive)

## C[C@@H]1CN([C@H](C)CO)C(=O)c2cc(NC(=O)CCC(F)(F)F)ccc2O[C@@H](C)CCCCO[C@@H]1CN(C)Cc1ccc(C(F)(F)F)cc1
[2]
  AC50: 8.65 µM (active)
[3]
  AC50: 26.5 µM (active)
[4]
  AC50: 45.3 µM (active)

## N#Cc1ccc(-c2ccc([C@@H]3[C@H]4CNC[C@@H]3N4Cc3ccc4c(c3)OCO4)cc2)cc1
[5]
  AC50: 16.9 µM (active)

## Cc1cccc(Nc2nc(-c3c(C)nc4ccccn34)cs2)c1
[6]
  AC50: 6.19 µM (active)
[7]
  AC50: 29.6 µM (active)
[8]
  AC50: 7.64 µM (active)
[9]
  AC50: 2.7 µM (active)
[10]
  AC50: 7.63 µM (active)
[11]
  IC50: 8.41 µM (active)

## O=C(C[C@H]1CC[C@H]2[C@@H](COC[C@H](O)CN2Cc2cccc(Cl)c2)O1)Nc1nccs1
[12]
  AC50: 16.7 µM (active)
[13]
  AC50: 16.7 µM (active)

## Cc1c(C)n(CCN(C)C)c2ccc(C(=O)OCCN(C)C)cc12 [AMINDOCATE]
[14]
  IC50: 1.2 µM (active)
[15]
  IC50: > 40 µM (inactive)

## COc1ccc(-c2cn3c(C)c(C(=O)Nc4cccc(C)n4)sc3n2)cc1
[16]
  IC50: 0.327 µM (active)

## O=C(C1=C(O)C(=O)N(Cc2ccccc2)C1c1cccnc1)c1ccco1 (stereo not given)
[17]
  Ki: 30.5 µM (inactive)

## CCOc1ccc(C(=O)C2=C(O)C(=O)N(CC3CCCO3)C2c2ccc(C)o2)cc1 (stereo not given)
[17]
  Ki: 21.1 µM (inactive)

## Cc1ccccc1Cn1cc(COC(=O)N(C)Cc2ccccc2)nn1
[18]
  EC50: > 167 µM (inactive)

## O=c1[nH]sc2cc(Cl)ccc12 [TICLATONE]
[14]
  IC50: > 40 µM (inactive)
[15]
  IC50: > 40 µM (inactive)

## C[C@@H]1CN([C@@H](C)CO)C(=O)c2cc(NC(=O)Cc3ccccc3)ccc2O[C@@H](C)CCCCO[C@@H]1CN(C)Cc1ccc(C(F)(F)F)cc1
[2]
  AC50: 7.23 µM (active)
[19]
  AC50: 31.7 µM (active)
[4]
  AC50: > 70 µM (inactive)

## Cc1ccc([S+]([O-])c2ccc([N+](=O)[O-])c3nonc23)cc1 (stereo not given)
[20]
  IC50: 42.3 µM (inactive)
[21]
  EC50: > 99 µM (inactive)
[22]
  EC50: > 99 µM (inactive)
[23]
  AC50: 2.56 µM (active)
[24]
  AC50: > 70 µM (inactive)

## O=C(c1cccc(S(=O)(=O)N2CCN(c3ccc(F)cc3)CC2)c1)N1CCCC(C(F)(F)F)C1 (stereo not given)
[25]
  AC50: 0.942 µM (active)
[26]
  AC50: 2.61 µM (active)
[27]
  AC50: 8.1 µM (active)
[28]
  IC50: > 122 µM (inactive)
[29]
  IC50: > 122 µM (inactive)

## O=C(c1cccs1)C1CCN(c2ncnc3sccc23)CC1
[11]
  IC50: 4.18 µM (active)

## CCOc1ccccc1NC(=O)c1cccc(NC(=O)c2ccccc2OC)c1
[30]
  IC50: 1.18 µM (active)
[31]
  IC50: 0.007 µM (active)

## CCc1cc(C(=O)OC)c(NC(=O)C2CC(=O)NN2Cc2ccccc2)s1 (stereo not given)
[32]
  IC50: > 69.5 µM (inactive)
[33]
  IC50: > 69.5 µM (inactive)

## CC(NC(=O)COc1ccccc1-c1ccccc1)c1ccccc1 (stereo not given)
[12]
  AC50: 35.9 µM (active)
[13]
  AC50: 35.9 µM (active)

## Cc1ccc(CNC(=O)Cc2ccc(-c3ccccc3)cc2)cc1
[34]
  EC50: > 120 µM (not active)
[35]
  EC50: 10.4 µM (active)
[36]
  EC50: 6.89 µM (active)
[18]
  EC50: > 167 µM (inactive)

## CCOc1ccc(-c2[nH]ncc2-c2ccc(Cl)cc2)c(O)c1
[37]
  CC50: > 40 µM (active)
[32]
  IC50: > 69.5 µM (inactive)
[33]
  IC50: 23.7 µM (inactive)

## COc1ccccc1C(=O)Nc1cc(NC(=O)c2cccc(C)c2)ccc1F
[30]
  IC50: 6.31 µM (active)
[31]
  IC50: 0.159 µM (active)
